Reference: PMC8954816, “Quantitative Analysis of Daporinad (FK866) and Its In Vitro and In Vivo Metabolite Identification Using Liquid Chromatography-Quadrupole-Time-of-Flight Mass Spectrometry” (Molecules, 2022)
Like-named read-outs stand apart in the source and are kept apart here.

Columns and labels:
[1] = Intravenous pharmacokinetic study of Daporinad in mice (plasma, LC-qTOF-MS, NCA); type: in vivo, mouse; conditions: for AUC(0-t) / Cmax / clearance / half-life / Vd: male, ICR; for AUC(0-t) / Cmax / clearance / half-life: n = 3; for Vd: n = 3, read-out: Vss
Description: The developed LC-qTOF-MS method was successfully applied to obtain the PK parameters of Daporinad in mouse plasma following IV administration at the doses of 5, 10 and 30 mg/kg. The concentrations of most PK samples were within the qualified calibration curve except some PK samples at early time point samples. Therefore, early time point PK samples were diluted appropriately with blank mouse plasma to ensure that every sample concentration was within the calibration curve range. The PK parameters were calculated with the non-compartmental analysis (NCA) using WinNonlin (version 8.0.0) and the results are summarized in Table 4.
An aliquot of 4 µL of STD or QC working solutions were spiked into 20 µL of blank mouse plasma, and 4 µL of make-up DMSO was spiked into 20 µL of the mouse PK sample to make it the same matrix condition as the STD and QC sample. Then, 100 µL of ISTD solution was added to STD, QC and the study sample. Then, the samples were vortexed for about 1 min and centrifuged at 10,000× g rpm for 5 min. After centrifugation, 75 µL of supernatant was taken and mixed with 75 µL of DW. After that, the aliquot was transferred to an LC vial for the LC-qTOF-MS analysis.
Male ICR mice (30 ± 3 g) were purchased from the Samtako biokorea co. (Pocheon, Gyeonggi, Korea) and housed in groups of 6~8 per cage and given standard rodent chow. The animals were fasted overnight with free access to water for at least 12 h before administration. Mice were distributed into three different dosing groups (n = 3 for each dosing group; 5, 10 and 30 mg/kg). The blood sampling time points were 2, 10, 30, 60, 120, 240 and 420 min after administration. The sampling blood samples were centrifuged at 12,000× g rpm for 5 min and the plasma was transferred to another tube and then stored at −20 °C until further analysis. All experiment performed on the mouse were approved by abiding the animal care protocol (no. CNU-01104) from Chungnam National University. The procedures were abided by the guidelines established by the Association for Assessment and Accreditation of Laboratory Animal Care International (AAALAC International).
Data acquisition and LC-qTOF-MS operation was conducted using Analyst® TF Version 1.6 (Sciex, Foster City, CA, USA). MultiQuant® Version 2.1.1 (Sciex, Foster City, CA, USA) was used for the peak integration for Daporinad quantification. PeakView® Version 2.2 (Sciex, Foster City, CA, USA) and MetabolitePilot™ Version 2.0.2 (Sciex, Foster City, CA, USA) were used for the structural elucidation of Daporinad metabolites. The descriptive statistics for the qualification studies were calculated with Excel 2015 (Microsoft). Pharmacokinetic parameters were calculated in a non-compartmental analysis using WinNonlin® version 8.0.0 (Certara, Princeton, NJ, USA).

[2] = Preliminary stability tests for Daporinad in mouse plasma; type: in vitro ADME; conditions: for Freeze–thaw stability, mean accuracy: 3 cycles; for Freeze–thaw stability, mean accuracy / Short-term stability, mean accuracy: n = 3; for Short-term stability, mean accuracy: 4 h
Description: Daporinad was stable in mouse plasma for […] three cycles of freeze–thawing and also stable during at least 2 weeks at −80 °C storage condition.
Three levels of QC were used for the short-term, freeze–thaw and long-term stability assessments. The short-term stability assessment was carried out at RT for 4 h, and the long-term stability samples were kept frozen at −80 °C for 2 weeks. The freeze–thaw stability was evaluated over three cycles of freezing (−80 °C) and thawing (RT). The stability test results were evaluated by confirming that the mean accuracy (%) of the nominal value which should be within ±25% acceptance criteria.

[3] = as above; type: in vitro ADME; conditions: 14 days, −20 °C, n = 3
[4] = mouse plasma, dose range 10 to 30 mg/kg

O=C(/C=C/c1cccnc1)NCCCCC1CCN(C(=O)c2ccccc2)CC1 [Daporinad]
AUC(0-t) ([1]; mouse plasma, 5 mg/kg): 2860 ng·h/mL | Cmax ([1]; mouse plasma, 5 mg/kg): 5480 ± 427 ng/mL | clearance ([1]; mouse plasma, 5 mg/kg): 29.3 ± 3.7 mL/min/kg | half-life ([1]; mouse plasma, 5 mg/kg): 52.9 ± 7.3 min | Vd ([1]; mouse plasma, 5 mg/kg): 0.897 ± 0.199 L/kg | AUC(0-t) ([1]; mouse plasma, 10 mg/kg): 5950 ng·h/mL | Cmax ([1]; mouse plasma, 10 mg/kg): 14900 ng/mL | clearance ([1]; mouse plasma, 10 mg/kg): 28.1 ± 2.78 mL/min/kg | half-life ([1]; mouse plasma, 10 mg/kg): 50.5 ± 4.88 min | Vd ([1]; mouse plasma, 10 mg/kg): 0.647 ± 0.0915 L/kg | AUC(0-t) ([1]; mouse plasma, 30 mg/kg): 29400 ng·h/mL | Cmax ([1]; mouse plasma, 30 mg/kg): 48100 ng/mL | clearance ([1]; mouse plasma, 30 mg/kg): 17.9 ± 5.11 mL/min/kg | half-life ([1]; mouse plasma, 30 mg/kg): 40.8 ± 0.95 min | Vd ([1]; mouse plasma, 30 mg/kg): 0.536 ± 0.11 L/kg | Dose proportionality of Cmax and AUC ([1]; mouse plasma, dose range 5 to 10 mg/kg): dose proportional | Dose proportionality of AUC [1, 4]: supra-proportional | Dose proportionality of Cmax [1, 4]: dose-proportional | Clearance classification ([1]; mouse, 5 to 30 mg/kg): low to moderate clearance | Freeze–thaw stability, mean accuracy ([2]; mouse plasma, −80 °C, High QC (1820 ng/mL)): 116% | Freeze–thaw stability, mean accuracy ([2]; mouse plasma, −80 °C, Low QC (15.0 ng/mL)): 105% | Freeze–thaw stability, mean accuracy ([2]; mouse plasma, −80 °C, Medium QC (165 ng/mL)): 117% | Short-term stability, mean accuracy ([2]; mouse plasma, RT, High QC (1820 ng/mL)): 104% | Short-term stability, mean accuracy ([2]; mouse plasma, RT, Low QC (15.0 ng/mL)): 103% | Short-term stability, mean accuracy ([2]; mouse plasma, RT, Medium QC (165 ng/mL)): 102% | Time stable in mouse plasma at room temperature ([2]; mouse plasma, RT): at least 4 h | Time stable in mouse plasma at storage condition ([2]; mouse plasma, −80 °C storage): at least 2 weeks | Freeze–thaw stability in mouse plasma ([2]; −80 °C, three cycles of freeze–thawing): stable | Long-term stability, mean accuracy ([3]; High QC (1820 ng/mL)): 91.4% | Long-term stability, mean accuracy ([3]; Low QC (15.0 ng/mL)): 111% | Long-term stability, mean accuracy ([3]; Medium QC (165 ng/mL)): 84.5%
